Source: patent US5328913A, “Minoxidil analogs as inhibitors of cell proliferation and lysyl hydroxylase” (priority 1992, dated 1994)
Entries after “also recorded” stand apart in the source; their conditions may differ.

Experiments:
[1] = system: enzyme activity (lysyl hydroxylase, prolyl hydroxylase); assay: Direct inhibition of enzyme activity, mixing experiments with extracts of treated cells and controls; format: biochemical, human
Experimental: The functional significance of the nitroxide oxygen in minoxidil was evaluated with a deoxy analog. Shown in FIG. 2 is a comparison of the effects of minoxidil and deoxyminoxidil on the activities of lysyl hydroxylase and the control enzyme prolyl hydroxylase in cultured fibroblasts.

[2] = system: prolyl hydroxylase; assay: Prolyl hydroxylase activity in extracts of treated human skin fibroblasts (Example 1, tritium-release assay); format: cell-based; conditions: cultured fibroblasts
Experimental: (§1) Cultures of human skin fibroblasts grown to confluence were incubated for 72 h in medium supplemented with 1% ethanol containing various concentrations of minoxidil or deoxyminoxidil as indicated. Cells were then harvested, and the enzyme activities in extracts of these cells were measured by tritium-release assays (Murad and Pinnell, J. Biol. Chem. 262:11,973 (1987)). The results are expressed as percentages of zero-concentration values.
as §1, with “with 1% acetone containing various concentrations of minoxidil sulfate,” for “deoxyminoxidil”, “tritium release” for “tritium-release”
(§2) Skin fibroblast cultures derived from an apparently normal child (GM05659) were obtained from the Institute for Medical Research, Camden, N.J. The cells were subcultured by trypsinization and used before 25 population doublings. Typically, 4×10^5 cells were seeded onto 100-mm (diameter) plastic petri dishes and allowed to grow in 10 ml of Dulbecco's modified Eagle's minimum essential medium containing 5.6 mM glucose, buffered in pH 7.4 with 24 mM sodium biocarbonate/25 mM Hepes and supplemented with 20% (v/v) calf serum which had been inactivated for 30 min at 56° C. The cells were incubated at 37° C. in a humidified atmosphere of 5% CO2 plus 95% air.
(§3) After a week, the medium was replaced with medium supplemented with 0.5% heat-inactivated diaylzed calf serum, and the incubation was continued for 72 h in the presence of minoxidil or one of its structural analogs. The compounds were dissolved in 95% ethanol, except minoxidil sulfate which was dissolved in acetone; the final solvent concentration was 1% (v/v). During the last 3 h of incubation, cells received 100 μM Na L-ascorbate to ensure complete hydroxylation of the polypeptide precursors of precollagen (Murad et al, J. Invest. Dermatol. 75:404 (1980)).
The medium was then removed and the cells were washed twice with a solution containing 0.14 M NaCl, 5 mM KCl, 0.3 mM Na2 PO4, and 0.4 mM KH2 PO4, adjusted to pH 7.4. […] The trypsinization was terminated with 2 vol of 20% serum-supplemented medium, and the cell number in an aliquot of the suspension was determined using a Coulter counter. […]
(§4) The protein content of cell extracts was determined by a dye-binding technique using Bio-Rad reagent and protein standard (Bradford, Anal. Biochem. 72:248 (1976)).

[3] = system: lysyl hydroxylase; assay: Lysyl hydroxylase activity in extracts of treated human skin fibroblasts (Example 1, tritium-release assay); format: cell-based; conditions: cultured fibroblasts
Experimental: as §1
as §1, with “with 1% acetone containing various concentrations of minoxidil sulfate,” for “deoxyminoxidil”, “tritium release” for “tritium-release”
as §2, §3
The medium was then removed and the cells were washed twice with a solution containing 0.14 M NaCl, 5 mM KCl, 0.3 mM Na2 PO4, and 0.4 mM KH2 PO4, adjusted to pH 7.4. The cells were detached from the plates with a solution containing 0.05% trypsin, 0.54 mM EDTA, 5.5mM glucose, 6.90mM NaHCO3, […], and 5 mM KCl. The trypsinization was terminated with 2 vol of 20% serum-supplemented medium, and the cell number in an aliquot of the suspension was determined using a Coulter counter.
The detached cells were collected by centrifugation at 500g for 6 min at 4° C. washed twice by suspending in phosphate-buffered NaCl/KCl as above, and then centrifuged. The cell pellet was suspended in a medium (1 ml/5×10^6 cells) containing 0.2 M NaCl, 0.1 M glycine, 50 μM dithiothreitol, 20 mM Tris-HCl, buffer (pH 7.5), 0.1% Triton X-100, and 0.01% soybean trypsin inhibitor. The suspension was sonicated for 30 s using a Branson sonifier cell disrupter. The lysate was centrifuged at 27,000g for 1 h at 4° C., and the resulting supernatant was used for prolyl and lysyl hydroxylase assays (Murad and Pinnell, J. Biol. Chem. 262:11, 973 (1987)). The enzyme activities are based on a unit of soluble cell protein.
as §4
Note: Cultures of human skin fibroblasts grown to confluence were
incubated for 72 h in medium supplemented with 1% ethanol containing 1 mM
of the indicated compounds. Cells were then harvested, and the enzyme
activity in extracts of these cells was measured by a tritiumrelease
incubated for 72 h in medium supplemented with 1% ethanol containing 1 nM

[4] = system: lysyl hydroxylase; assay: Lysyl hydroxylase activity in fibroblasts treated with minoxidil and its hydroxy derivatives (Example 3); format: cell-based, human; conditions: for Fibroblast Lysyl Hydroxylase Activity: 48 hr
Experimental: (§5) Culture of human skin fibroblasts derived from an apparently normal adult were grown to confluent densities in Dulbecco's modified Eagle's medium supplemented with 10% (v/v) fetal calf serum. Thereafter, the medium was replaced with medium supplemented with 0.5% dialyzed fetal calf serum. […] In some experiments, minoxodil was dissolved in 95% (v/v) ethanol; the final concentration of minoxidil was 0.3 mM and that of ethanol was 0.3%. Cultures treated with ethanol only served as the control.
(§6) During the last 3 hr of treatment, cultures received 100 μM ascorbic acid. The enzyme activities in extracts of treated cells were measured by tritium-release assays described previously (Murad and Pinnell, J. Biol. Chem. 262:11,973 (1987)).

[5] = system: Collagen Synthesis in Human Skin Fibroblasts; assay: Collagen synthesis in human skin fibroblasts; format: cell-based; conditions: 1 mM, 72 hr; mean ± SD of duplicate analysis of two cultures (Table VII)
Experimental: (§7) Culture of human skin fibroblasts derived from an apparently normal adult were grown to confluent densities in Dulbecco's modified Eagle's medium supplemented with 10% (v/v) fetal calf serum. Thereafter, the medium was replaced with medium supplemented with 0.5% dialyzed fetal calf serum. The cultures were treated for 72 hr with 1 mM minoxidil, 3'- hydroxyminoxidil,or 4'-hydroxyminoxidil (Upjohn) dissolved in aqueous medium. In some experiments, minoxodil was dissolved in 95% (v/v) ethanol; […]. Cultures treated with ethanol only served as the control.
During the last 6 hr of treatment, cultures were labeled with 20 μCi of L-[2,3-^3 H]proline in 1 ml of medium supplemented with 100 μM ascorbic acid. The amount of proline radioactivity incorporated into collagen in the medium and cells combined was measured after digestion with a bacterial collagenase, essentially as described previously (Freiberger et al, J. Invest. Dermatol. 75:425 (1980)).

[6] = system: Prolyl Hydroxylations in Human Skin Fibroblasts; assay: Hydroxylation of proline residues in type I procollagen (Hyp/Pro); format: cell-based; conditions: 1 mM; for Hyp/Pro: 72 hr; for activity at 1000 µM: Homo sapiens, Skin fibroblast, 72 hr (Table V), read-out: ratio of hydroxyproline to proline, % control value
Experimental: as §5, with “[…].” for “the final concentration of minoxidil was 0.3 mM and that of ethanol was 0.3%.”
(§8) During the last 6 hr of treatment, cultures were labeled with 50 μCi of L-[2,3-^3 H]proline (35 Ci/mmol) and 50 μCi of L[U-^14 C]lysine ([…]) in 4 ml of lysine-free medium supplemented with 100 μM ascorbic acid. At the end of the incubation period, the medium was removed and mixed with 1 mM each of EDTA, N-ethylmaleimide, and phenylmethylsulfonylfluoride, and the collagenous proteins were precipitated with 30% (NH4)2 SO4. The cell layer was scraped and extracted with 0.5 M acetic acid containing the protease inhibitors as above. The cell extract was neutralized, and the collagenous proteins were precipitated as above. The (NH4)2 SO4 precipitate from the medium and cell layer was separately dissolved in 0.1% SDS/10 mM Tris-HCl (pH 6.8), reduced with dithiothreitol, and analyzed by electrophoresis on 4% SDS-polyacrylamide gels. The bands corresponding to the proαl(I) and proα2(I) chains from the two fractions were pooled and hydrolyzed with 6 M HCl for 24 hr at 110° C. Proline, hydroxyproline, lysine, and hydroxylysine in the hydrolysate were separated by HPLC (Takimitsa et al, J. Dermatol. 16:37 (1989)), and their radioactivity was determined in a Beckman liquid scintillation counter. To isolate type I procollagen the precipitate from the medium and cell layer was separately dissolved in 25 mM Tris-HCl, pH 7.5, containing 2 M urea and 1 mM each of EDTA, N-ethylmaleimide, and phenylmethylsulfonylfluoride, then chromatographed on a DEAE-cellulose column (Freiberger et al, J. Invest. Dermatol. 75:425 (1980)). The procollagen isolated from the two fractions was pooled, hydrolyzed, and analyzed as above.

[7] = system: non-proliferating fibroblasts; assay: Cytotoxicity to non-proliferating fibroblasts (cell number per dish); format: cell-based; conditions: 5 mM, 72 hr
Text: Certain aspects of the present invention are described in greater detail in the non-limiting Examples that follow. (See also Murad et al, Arch. Biochem. Biophys. 292:234 (1992)).

[8] = system: Lysyl Hydroxylations in Human Skin Fibroblasts; assay: Hydroxylation of lysine residues in type I procollagen (Hyl/Lys); format: cell-based; conditions: 1 mM; for Hyl/Lys: 72 hr; for activity at 1000 µM: Homo sapiens, Skin fibroblast, 72 hr (Table V), read-out: ratio of hydroxylysine to lysine, percentage of control value
Experimental: as §7, §8

[9] = system: prolyl hydroxylase; assay: Prolyl hydroxylase activity in fibroblasts treated with minoxidil and its hydroxy derivatives (Example 3); format: cell-based, human; conditions: for prolyl hydroxylase activity (in words) / Prolyl Hydroxylase Activity: 1 mM; for prolyl hydroxylase activity (in words): 72 hr
Experimental: Culture of human skin fibroblasts derived from an apparently normal adult were grown to confluent densities in Dulbecco's modified Eagle's medium supplemented with 10% (v/v) fetal calf serum. Thereafter, the medium was replaced with medium supplemented with 0.5% dialyzed fetal calf serum. The cultures were treated for 72 hr with 1 mM minoxidil, 3'- hydroxyminoxidil,or 4'-hydroxyminoxidil (Upjohn) dissolved in aqueous medium. In some experiments, minoxodil was dissolved in 95% (v/v) ethanol; the final concentration of minoxidil was 0.3 mM and that of ethanol was 0.3%. Cultures treated with ethanol only served as the control.
as §6

[10] = system: human skin fibroblasts; assay: Fibroblast proliferation; format: cell-based; conditions: relative to minoxidil
Experimental: Cultures were seeded at a density of 100,000 cells per 35 mm-dish and allowed to attach and proliferate in the presence of 20% calf serum. Drug-treated cultures received 1 mM minoxidil or its hydroxy derivative on day 1 after seeding.

[11] = in vivo; cited from earlier work
[12] = 1 mM, 72 hr (description table)
[13] = type I procollagen chains isolated by gel electrophoresis, mean ± range of two experiments (description table)

Row | effect on prolyl hydroxylase (in words) [9] | prolyl hydroxylase activity (in words) [9] | SMILES | suppression of lysyl hydroxylase (in words) [4] | Fibroblast Lysyl Hydroxylase Activity ([4]; 1 mM) | Lysyl Hydroxylase Activity ([4]; 1 mM, 72 hr (Table VI)) | Lysyl Hydroxylase Activity [4, 12] | Fibroblast Lysyl Hydroxylase Activity ([4]; 5 mM) | % Collagen Synthesized [5] | Hyp/Pro ([6]; gel electrophoresis (Table V)) | Hyp/Pro [6, 13] | activity at 1000 µM [6] | 10^-6 × No. of Cells/Dish [7] | Hyl/Lys ([8]; gel electrophoresis (Table V)) | Hyl/Lys [8, 13] | activity at 1000 µM [8] | Prolyl Hydroxylase Activity ([9]; 72 hr (Table VI)) | Prolyl Hydroxylase Activity ([9]; 72 hr (description table)) | suppression of fibroblast proliferation (in words) [10] | antihypertensive / hypotensive activity (in words) [11] | further results
1 |  |  | Nc1cc(N2CCCCC2)nc(N)n1 [Deoxyminoxidil] |  |  |  |  |  |  |  |  |  |  |  |  |  |  |  |  |  | direct inhibition of enzyme activity (in words) [1]: no evidence for direct inhibition of enzyme activity; IC50 ([2]; 72 h (FIG. 2), read-out: concentration required for 50% effect (prolyl hydroxylase)): 260 µM; effect on prolyl hydroxylase activity (in words) ([2]; 72 h, Example 1): suppressed prolyl hydroxylase activity in a dose-related manner; IC50 ([3]; 72 h (FIG. 2), read-out: concentration required for 50% inhibition (lysyl hydroxylase)): 118 µM; effect on lysyl hydroxylase activity (in words) ([3]; 72 h, Example 1): suppressed lysyl hydroxylase activity in a manner remarkably similar to that observed with minoxidil
2 | without affecting prolyl hydroxylase | remained unchanged | Nc1cc(N2CCC(O)CC2)nc(N)[n+]1[O-] [4'-Hydroxyminoxidil] | inhibitory potential comparable to that of minoxidil; also recorded: as active as minoxidil in suppressing fibroblast proliferation and lysyl hydroxylase activity | 415 cpm^3 H2 O/mg protein | 239 cpm ^3 H2 O/mg protein | 293 cpm^3 H2 O/mg protein | 494 cpm^3 H2 O/mg protein | 8.2 ± 0.6% | 1.12 ± 0.07 | 1.12 ± 0.07 | 122% | 1.42 10^-6 × No. of Cells/Dish | 0.09 ± 0.01 | 0.09 ± 0.01 | 41% | 33500 cpm ^3 H2 O/mg protein | 33500 cpm^3 H2 O/mg protein | as active as minoxidil in suppressing fibroblast proliferation | Neither metabolite exhibits the marked hypotensive activity associated with minoxidil; also recorded: inactive as antihypertensive agents | 
3 | without affecting prolyl hydroxylase | remained unchanged | Nc1cc(N2CCCC(O)C2)nc(N)[n+]1[O-] (centres unmarked) [3'-Hydroxyminoxidil] | inhibitory potential comparable to that of minoxidil; also recorded: as active as minoxidil in suppressing fibroblast proliferation and lysyl hydroxylase activity | 401 cpm^3 H2 O/mg protein | 263 cpm ^3 H2 O/mg protein | 263 cpm^3 H2 O/mg protein | 383 cpm^3 H2 O/mg protein | 9.0 ± 0.9% | 0.95 ± 0.02 | 0.95 ± 0.02 | 103% | 1.39 10^-6 × No. of Cells/Dish | 0.07 ± 0.01 | 0.07 ± 0.01 | 32% | 30512 cpm ^3 H2 O/mg protein | 30512 cpm^3 H2 O/mg protein | as active as minoxidil in suppressing fibroblast proliferation | Neither metabolite exhibits the marked hypotensive activity associated with minoxidil; also recorded: inactive as antihypertensive agents | Lysyl hydroxylase activity, % of control level ([4]; 1 mM, 72 hr): 22%
